“Also recorded” adds a separate entry of the source.
Experiments:
S. Cerevisiae = test: yeast bioscreen, Chronological Lifespan Profile of ageing yeast cultures; type: cell-based
From the text: The yeast bioscreen measures the Chronological Lifespan Profile of an ageing yeast cultures. The median lifespan is defined as the time at which 50% of a given population has died. Relative viability (expressed in the below chart) compares the effect of treatment on a cultures viability as a fraction of control vehicle treated cultures.
RDC5 is thus believed to be able to delay ageing and the onset of age-related diseases such as unwanted fat accumulation.

Bus8 worms = test: worm lifespan (Healthspan, Median lifespan) in Bus8 background; type: in vivo; design: Healthspan: unit not given here; conditions: for Healthspan: Control 6.87; for Median Lifespan: Control 10.10
From the text: (§1) Worm cultures of at least 80 worms were manually assessed daily for the duration of the lifespan.

Bus5 worms = test: worm lifespan (Healthspan, Median lifespan) in Bus5 worms; type: in vivo; conditions: for Healthspan: Control 10.93; for Median Lifespan: Control 15.08
From the text: as §1

C. elegans = test: lipid accumulation in worms, Oil-Red-O staining; type: in vivo; conditions: for age dependent increase in fat (lipid) accumulation: Oil-Red-O, versus DMSO control
From the text: Tacrolimus is able to delay the age dependent increase in fat accumulation in C. elegans. Worms are a versatile model of obesity ref: (Zheng & Greenway, 2012)
Oil-Red-O is a fat-soluble dye used for staining lipids and is quantified by colour light microscopy.

[1] = aged rat study: weekly body weight and survival; type: in vivo
From the text: Aged rats are known to increase in body weight dramatically in late adulthood. Aged rats were being used as a model in RAT_ND_01 and body weights and tissue samples were taken from the rats in this trial. Rats were 18 m of age at the start of the 6 m trial. The dosage is seen in FIG. 4.
Throughout this study (i.e. from 18 months of age onwards), individual weekly body weight assessments were made for both the control and RDC5 treated group. […] At the 1 and 2 week time-points, before the onset of treatment, no significant difference between RDC5 and control treatment could be observed. Control treated rat body weight continued to increase over time from approximately 250 g to over 320 g at the 6 month time-point (at 24 months of age). […] Weight levels dropped initially however not below a healthy age (approx. 230 g) and remained constant (+/−20 g) for the remainder of the study.
Fifty female Fischer rats initially aged 18 months were used in this study. Animals were housed at standard temperature (22±1° C.) in light controlled environment (lights on from 7 am to 8 pm) with ad libitum access to food and water with softer food introduced at 17 weeks to encourage food intake. Half the animals were treated with vehicle (5 ml/kg, s.c.) 6 days a week and half were treated with RDC5 (1 mg/kg, s.c.) 6 days a week. Individual body weights were recorded at baseline and then once a week until the end of the study.

[2] = blood / plasma metabolic biomarkers of aged rats after 6 m treatment; type: in vivo, rat
From the text: A range of techniques has been used to determine the effect RDC5 has on levels of blood biomarkers of obesity and metabolic disorders.
Metabolic biomarkers tested included: • Ketone Bodies—kinetic enzymatic • Free Fatty acids—ACS-ACOD Enzymatic • Glycerol—Calometric • Triglycerides—GPO-POD • HDL Cholesterol—CHO-PAP • LDL Cholesterol—Enzymatic • Total Cholesterol—CHO-PAP
The RDC5 treated and control treated animals had their blood plasma profiled at the end of the investigations.

[3] = post mortem MRI scanning of aged rats, fat:lean ratio; type: in vivo, rat; conditions: for sub-cutaneous fat / visceral fat / fat within the body cavity: 24 month old rats, MRI, versus control treated
From the text: FIG. 11 presents MIR data comparing 3 month old untreated animal, 24 month old control treated animal and 24 month old tacrolimus treated animal. […] This is consistent with a cosmetic improvement (with respect to reduction in sub-cutaneous fat) and a health improvement (with respect to reduction of fat near internal organs) produced by tacrolimus treatment. The MIR images are marked (areas 1) to show internal fat areas. The sub-cutaneous fat layer is the light grey outer ring only easily seen in the 24 month old untreated control.

worms = test: worm lifespan, strain not stated (close structural analogues, dosing frequency); type: in vivo; design: Healthspan / Median Lifespan / Max Lifespan: unit not given here; conditions: for ability to extend the lifespan of worms compared with tacrolimus: lifespan plots FIG. 7 / FIG. 8
From the text: as §1

[4] = blood levels of tacrolimus after one 0.3 mg oral capsule in healthy human volunteers; type: in vivo
Procedure: A hard gelatine capsule was filled with the following composition:
(§2) One oral capsule as above containing 0.3 mg tacrolimus was administered to groups of healthy human volunteers. […] The average trough level of tacrolimus (level after 24 hours of administration of each dose) observed was approximately 220 pg/mL.

TNF-α = test: blood TNF-α levels in healthy human volunteers after 0.3 mg capsule; type: in vivo; conditions: 0.3 mg oral capsule
Procedure: as §2

Osteoblast cells = test: response to oxidative stress of Osteoblast cells; type: cell-based
[5] = 6 m treatment in rats, versus control
[6] = blood plasma at end of study, versus control treated
[7] = FIG. 8 experiment, Control 10.4

SMILES: C=CC[C@@H]1/C=C(\C)C[C@H](C)C[C@H](OC)[C@H]2O[C@@](O)(C(=O)C(=O)N3CCCC[C@H]3C(=O)O[C@H](/C(C)=C/[C@@H]3CC[C@@H](O)[C@H](OC)C3)[C@H](C)[C@@H](O)CC1=O)[C@H](C)C[C@@H]2OC [RDC5, tacrolimus]
- effect on growth rate (S. Cerevisiae; S. Cerevisiae): without effecting growth rate
- median lifespan of yeast cultures versus control treated cultures (S. Cerevisiae; S. Cerevisiae chronological lifespan): significantly longer
- Healthspan % increase wrt control (Bus8 worms; Bus8, 1 ug/ml): 0.5%
- Median Lifespan % increase wrt control (Bus8 worms; Bus8, 1 ug/ml): 7.5%
- Healthspan (Bus8 worms; Bus8, 1 ug/ml): 6.90
- Median Lifespan (Bus8 worms; Bus8, 1 ug/ml): 10.86
- Healthspan % increase wrt control (Bus8 worms; Bus8, 10 ug/ml): 14%
- Median Lifespan % increase wrt control (Bus8 worms; Bus8, 10 ug/ml): 20%
- Healthspan (Bus8 worms; Bus8, 10 ug/ml): 7.85
- Median Lifespan (Bus8 worms; Bus8, 10 ug/ml): 12.18
- Healthspan % increase wrt control (Bus8 worms; Bus8, 20 ug/ml): −9%
- Median Lifespan % increase wrt control (Bus8 worms; Bus8, 20 ug/ml): 16%
- Healthspan (Bus8 worms; Bus8, 20 ug/ml): 6.23
- Median Lifespan (Bus8 worms; Bus8, 20 ug/ml): 11.70
- Healthspan % increase wrt control (Bus8 worms; Bus8, 40 ug/ml): −3%
- Median Lifespan % increase wrt control (Bus8 worms; Bus8, 40 ug/ml): 16%
- Healthspan (Bus8 worms; Bus8, 40 ug/ml): 6.67
- Median Lifespan (Bus8 worms; Bus8, 40 ug/ml): 11.70
- dose at which efficacy peaks for Median Lifespan extension (Bus8 worms; Bus8 worms): 10 µg/mL
- most efficacious dose at extending Healthspan (Bus8 worms; Bus8 worms, doses tested 1, 10, 20, 40 ug/ml): 10 µg/mL
- Healthspan and Median lifespan of populations of worms (Bus8 worms; cultures of at least 80 worms, assessed daily): able to extend
- least effective dose (Bus8 worms; dose response in worms, FIG. 9): 40 µg/mL
- Healthspan % increase wrt control (Bus5 worms; Bus5, 1 ug/ml): 33%
- Median Lifespan % increase wrt control (Bus5 worms; Bus5, 1 ug/ml): 23%
- Healthspan (Bus5 worms; Bus5, 1 ug/ml): 14.55
- Median Lifespan (Bus5 worms; Bus5, 1 ug/ml): 18.54
- Healthspan % increase wrt control (Bus5 worms; Bus5, 10 ug/ml): 23%
- Median Lifespan % increase wrt control (Bus5 worms; Bus5, 10 ug/ml): 26%
- Healthspan (Bus5 worms; Bus5, 10 ug/ml): 13.43
- Median Lifespan (Bus5 worms; Bus5, 10 ug/ml): 19.03
- Healthspan % increase wrt control (Bus5 worms; Bus5, 40 ug/ml): −6%
- Median Lifespan % increase wrt control (Bus5 worms; Bus5, 40 ug/ml): 0.5%
- Healthspan (Bus5 worms; Bus5, 40 ug/ml): 10.28
- Median Lifespan (Bus5 worms; Bus5, 40 ug/ml): 15.17
- age dependent increase in fat (lipid) accumulation (C. elegans): shallower rise
- age dependent increase in fat (lipid) accumulation (C. elegans; listed as Tacrolimus): able to delay
- time at which maximal lipid accumulation happens (C. elegans; days post adulthood, DMSO control day 4): 7 days
- age related weight gain ([1]; 1 mg/kg s.c. 6 days a week): did not show age related weight gain
- survival of animals at the end of the study versus control ([1]; 1 mg/kg s.c. 6 days a week, 6 months): No significant differences
- lighter than control treated age-matched rats at end of study ([1]; 6 month study, 24 months of age): 28%
- HDL [2, 5]: significant reductions
- LDL [2, 5]: significant reductions
- free fatty acids [2, 5]: reduction is not statistically significant
- glycerol [2, 5]: reduction is not statistically significant
- ketone bodies [2, 5]: reduction is not statistically significant
- total cholesterol [2, 5]: significant reductions
- triglycerides [2, 5]: significant reductions; also recorded: beneficial reduction
- reduction in lactate dehydrogenase levels [2, 6]: 50%
- reduction in total cholesterol [2, 6]: 40%
- sub-cutaneous fat [3]: less
- visceral fat / fat within the body cavity [3]: less
- sub-cutaneous fat ([3]; listed as tacrolimus): akin to the 3 month old untreated animal
- visceral fat / fat within the body cavity ([3]; listed as tacrolimus): much less
- average body fat ([3]; rats at 24 months, control roughly 40%, 3 month rats roughly 20%): roughly 30%
- Healthspan (worms; FIG. 7 experiment, Control 3.0, listed as RDC5 (Evita)): 4.5
- Healthspan (worms; FIG. 7 experiment, Control 3.0, listed as RDC5 (Sigma)): 4.6
- Median Lifespan (worms; FIG. 7 experiment, Control 5.7, listed as RDC5 (Evita)): 7.1
- Median Lifespan (worms; FIG. 7 experiment, Control 5.7, listed as RDC5 (Sigma)): 7.8
- Max Lifespan (worms; FIG. 7 experiment, Control 8.7, listed as RDC5 (Evita)): 10.3
- Max Lifespan (worms; FIG. 7 experiment, Control 8.7, listed as RDC5 (Sigma)): 11.2
- Healthspan (worms; FIG. 8 experiment, Control 5.9): 7.8
- Median Lifespan (worms; FIG. 8 experiment, Control 8.1): 10.8
- Max Lifespan (worms; [7]): 13.8
- lifespan compared to control (worms; dosing on one third of days, except when dosing not commenced early in lifespan): significant increases
- lifespan compared to control (worms; dosing on two thirds of days): significant increases
- shape of dose response, worm lifespan extension (worms; in vivo): bell shaped dose response
- average peak level of tacrolimus ([4]; 0.3 mg oral capsule, healthy volunteers): approximately 3700 pg/mL
- AUC(0-t) ([4]; human, blood, 0.3 mg oral capsule, healthy volunteers, read-out: average area under the curve AUC 0-t): ~23.5 ng·h/mL
- concentration at 24 h ([4]; human, blood, 0.3 mg oral capsule, level after 24 hours of administration of each dose, healthy volunteers, read-out: average trough level of tacrolimus): ~0.22 ng/mL
- expected trough level ([4]; two capsules, single dose of 0.6 mg): about 440 pg/mL
- changes in blood TNF-α levels (TNF-α): No significant changes
- shape of dose response, response to oxidative stress (Osteoblast cells): bell shaped dose response

SMILES: CC[C@@H]1/C=C(\C)C[C@H](C)C[C@H](OC)[C@H]2O[C@@](O)(C(=O)C(=O)N3CCCC[C@H]3C(=O)O[C@H](/C(C)=C/[C@@H]3CC[C@@H](O)[C@H](OC)C3)[C@H](C)[C@@H](O)CC1=O)[C@H](C)C[C@@H]2OC [Ascomycin]
- Healthspan (worms; FIG. 7 experiment, Control 3.0): 4.1
- Median Lifespan (worms; FIG. 7 experiment, Control 5.7): 7.2
- Max Lifespan (worms; FIG. 7 experiment, Control 8.7): 10.6
- ability to extend the lifespan of worms compared with tacrolimus (worms): as effectively as tacrolimus

SMILES: CCC[C@@H]1/C=C(\C)C[C@H](C)C[C@H](OC)C2O[C@@](O)(C(=O)C(=O)N3CCCC[C@H]3C(=O)O[C@H](/C(C)=C/[C@@H]3CC[C@@H](O)[C@H](OC)C3)[C@H](C)[C@@H](O)CC1=O)[C@H](C)C[C@@H]2OC [Dihydrotacrolimus]
- Healthspan (worms; FIG. 8 experiment, Control 5.9): 7.3
- Median Lifespan (worms; FIG. 8 experiment, Control 8.1): 10.3
- Max Lifespan (worms; [7]): 13.2
- ability to extend the lifespan of worms compared with tacrolimus (worms): almost as effectively as tacrolimus

From patent US20160120853A1, “TACROLIMUS AND ANALOGUES THEREOF FOR MEDICAL USE” (CHRONOS THERAPEUTICS LIMITED, priority 2013, published 2016)
